# Data from PubChem BioAssay AID2060884 (Molecular Pharmacology Branch, DTP, NCI, 2025).
# System: NCI-H929 complex spheroids, viability % test/control
# Assay: Anticancer human tumor NCI-H929 cell line growth inhibition [RAS];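 note: compound exposure lasted seven days before viability was read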
# Conditions: for IC50: curve of first compound; for viability, T/C: stronger effect = lower value
# Source text: RAS pathway inhibitors in Combinations in Complex Spheroids
# A high-throughput screen of multi-cell type tumor spheroids was designed to identify active combinations of RAS pathway inhibitors and targeted small molecules. Complex spheroids include a stromal component modeled by human endothelial cells (HUVEC) and fibroblasts modeled by human mesenchymal stem cells (MSCs). The concentration ranges selected for each drug and investigational agent were based upon clinically achievable concentrations if the clinical Cmax of the agent was known.
# Compounds. The drugs and investigational agents: abemaciclib (NSC768073), cobimetinib (NSC768068), divarasib (GDC6063, NSC841802), docetaxel (NSC628503), GDC-1971 (RLY-1971, NSC841576), gemcitabine (NSC613327), inavolisib (NSC800729), ipatasertib (NSC767898), KB-0742 (NSC834161), MRTX-1133 (NSC836407), osimertinib (NSC779217), RMC-4630 (NSC839698), RMC-6236 (NSC851965), RMC-6291 (NSC852671), Ro-3306 (NSC812927), sapanisertib (NSC764658), SN-38 (NSC673596), staurosporine (NSC755774), SY5609 (NSC837396), and tovorafenib (DAY101, NSC766906), were obtained from the National Cancer Institute (NCI) Developmental Therapeutics Program Chemical Repository. The FDA-approved anticancer drug set is available from the NCI Developmental Therapeutics Program. […] The stock solutions were prepared in dimethyl sulfoxide (DMSO, Sigma-Aldrich, St. Louis, MO, cat. D2650) at 800-fold the tested concentration and stored at -70 degrees C prior to their use. All drugs and investigational agents were tested over a range starting from a high concentration at or near the clinical Cmax and decreasing in half-log increments. If the clinical Cmax for an agent had not been determined, the highest concentration tested was 10 microM.
# Cell Culture. All cells were maintained in an incubator at 37 degrees C and 5% CO2 with 95% humidity. The PDC lines were cultured according to standard operating procedures established by the NCI PDMR. All PDCs were thawed and cultured in Matrigel-coated flasks prepared with a working solution of 1X Ham's F-12 nutrient mix, without supplementation (Invitrogen, Waltham, MA, cat. 11765054), 100 U/mL penicillin-streptomycin (Invitrogen, cat. 15140122), and 2.5% Matrigel (Corning Inc., Corning, NY, cat. 354248) for the first three passages. The 362531-283-R-J2-PDC and 782815-120-R-J1-PDC lines were cultured in 6C/Colon 1B media, which includes advanced DMEM/F-12 (Thermo Fisher Scientific, cat. 12634028), 10 mM HEPES (Thermo Fisher Scientific, cat. 15630080), 1X GlutaMAX supplement (Thermo Fisher Scientific, cat. 35050061), 0.1 mg/mL primocin (InvivoGen, San Diego, CA, cat. ant-pm-2), 10% defined fetal bovine serum, heat inactivated (HyClone Laboratories Inc., Logan, UT, cat. SH30070.03HI), 50% L-WRN conditioned media (ATCC, cat. CRL-3276), 1.25 mM N-Acetyl-L-cysteine (Sigma-Aldrich, cat. A9165), 10 mM nicotinamide (Sigma-Aldrich, cat. N0636), 1X B-27 supplement (Thermo Fisher Scientific, cat. 17504044), 1X N-2 supplement (Thermo Fisher Scientific, cat. 17502048), 50 ng/mL human EGF (Thermo Fisher Scientific, cat. PHG0311), and 10 microM Y-27632 dihydrochloride (Tocris Bioscience, cat. 1254). The K12877-001-R-J1-PDC line was cultured in 6I media, which includes all 6C/Colon 1B media plus 10 ng/mL human FGF-10 (PeproTech, cat. 100-26), 1 ng/mL human FGF-2 (PeproTech, cat. 100-18B), 1 µM prostaglandin E2 (Tocris Bioscience, cat. 2296), […] hydrocortisone (Sigma-Aldrich, cat. H4001), and […] bovine insulin (Sigma-Aldrich, cat. I6634). The K86415-001-R-J1-PDC line was cultured in 6D media, which includes all 6C/Colon 1B media components minus the L-WRN conditioned media. The 485176-168-R4-J1-PDC was cultured in PANC media, which includes all 6C/Colon 1B media plus 100 ng/mL human FGF-10 (PeproTech, cat. 100-26), 500 nM SB-431542 (Selleckchem, cat. S1067), and 10 nM gastrin (Tocris Bioscience, cat. 3006). […]
smiles,measurement,setting,value
C=CC(=O)Nc1cc(Nc2nccc(-c3cn(C)c4ccccc34)n2)c(OC)cc1N(C)CCN(C)C + C#Cc1c(F)ccc2cc(O)cc(-c3ncc4c(N5CC6CCC(C5)N6)nc(OCC56CCCN5CC(F)C6)nc4c3F)c12,IC50,second compound 0.0316 µM,> 1000 nM
same,IC50,second compound 0.1 µM,> 1000 nM
same,IC50,second compound 0.316 µM,> 1000 nM
same,IC50,second compound 1 µM,> 1000 nM
same,IC50,second compound 3.16 µM,> 1000 nM
same,IC50,second compound 10 µM,> 1000 nM
same,"viability, T/C","second compound 0.0316 µM, first compound 0.00316 µM",101%
same,"viability, T/C","second compound 0.0316 µM, first compound 0.01 µM",94.1%
same,"viability, T/C","second compound 0.0316 µM, first compound 0.0316 µM",101%
same,"viability, T/C","second compound 0.0316 µM, first compound 0.1 µM",95.4%
same,"viability, T/C","second compound 0.0316 µM, first compound 0.316 µM",99.7%
same,"viability, T/C","second compound 0.0316 µM, first compound 1 µM",98.8%
same,"viability, T/C","second compound 0.1 µM, first compound 0.00316 µM",96.8%
same,"viability, T/C","second compound 0.1 µM, first compound 0.01 µM",97.5%
same,"viability, T/C","second compound 0.1 µM, first compound 0.0316 µM",102%
same,"viability, T/C","second compound 0.1 µM, first compound 0.1 µM",98.6%
same,"viability, T/C","second compound 0.1 µM, first compound 0.316 µM",101%
same,"viability, T/C","second compound 0.1 µM, first compound 1 µM",102%
same,"viability, T/C","second compound 0.316 µM, first compound 0.00316 µM",98.1%
same,"viability, T/C","second compound 0.316 µM, first compound 0.01 µM",101%
same,"viability, T/C","second compound 0.316 µM, first compound 0.0316 µM",103%
same,"viability, T/C","second compound 0.316 µM, first compound 0.1 µM",99.2%
same,"viability, T/C","second compound 0.316 µM, first compound 0.316 µM",104%
same,"viability, T/C","second compound 0.316 µM, first compound 1 µM",101%
same,"viability, T/C","second compound 1 µM, first compound 0.00316 µM",94%
same,"viability, T/C","second compound 1 µM, first compound 0.01 µM",97.2%
same,"viability, T/C","second compound 1 µM, first compound 0.0316 µM",106%
same,"viability, T/C","second compound 1 µM, first compound 0.1 µM",102%
same,"viability, T/C","second compound 1 µM, first compound 0.316 µM",102%
same,"viability, T/C","second compound 1 µM, first compound 1 µM",102%
same,"viability, T/C","second compound 3.16 µM, first compound 0.00316 µM",101%
same,"viability, T/C","second compound 3.16 µM, first compound 0.01 µM",97.8%
same,"viability, T/C","second compound 3.16 µM, first compound 0.0316 µM",103%
same,"viability, T/C","second compound 3.16 µM, first compound 0.1 µM",98.8%
same,"viability, T/C","second compound 3.16 µM, first compound 0.316 µM",102%
same,"viability, T/C","second compound 3.16 µM, first compound 1 µM",104%
same,"viability, T/C","second compound 10 µM, first compound 0.00316 µM",94%
same,"viability, T/C","second compound 10 µM, first compound 0.01 µM",98.8%
same,"viability, T/C","second compound 10 µM, first compound 0.0316 µM",94.8%
same,"viability, T/C","second compound 10 µM, first compound 0.1 µM",102%
same,"viability, T/C","second compound 10 µM, first compound 0.316 µM",99.1%
same,"viability, T/C","second compound 10 µM, first compound 1 µM",98.3%
C=CC(=O)Nc1cc(Nc2nccc(-c3cn(C)c4ccccc34)n2)c(OC)cc1N(C)CCN(C)C + CCn1c(-c2cccnc2C(C)OC)c2c3cc(ccc31)N1CCOC(CC(NC(=O)C(C(C)C)N(C)C(=O)C3(F)CCN(C(=O)C#CC(C)(C)N(C)C)CC3)C(=O)N3CCCC(N3)C(=O)OCC(C)(C)C2)C1,IC50,second compound 0.000949 µM,> 1000 nM
same,IC50,second compound 0.003 µM,> 1000 nM
same,IC50,second compound 0.00949 µM,> 1000 nM
same,IC50,second compound 0.03 µM,> 1000 nM
same,IC50,second compound 0.0949 µM,> 1000 nM
same,IC50,second compound 0.3 µM,> 1000 nM
same,"viability, T/C","second compound 0.000949 µM, first compound 0.00316 µM",105%
same,"viability, T/C","second compound 0.000949 µM, first compound 0.01 µM",98.3%
same,"viability, T/C","second compound 0.000949 µM, first compound 0.0316 µM",110%
same,"viability, T/C","second compound 0.000949 µM, first compound 0.1 µM",100%
same,"viability, T/C","second compound 0.000949 µM, first compound 0.316 µM",106%
same,"viability, T/C","second compound 0.000949 µM, first compound 1 µM",100%
same,"viability, T/C","second compound 0.003 µM, first compound 0.00316 µM",101%
same,"viability, T/C","second compound 0.003 µM, first compound 0.01 µM",103%
same,"viability, T/C","second compound 0.003 µM, first compound 0.0316 µM",103%
same,"viability, T/C","second compound 0.003 µM, first compound 0.1 µM",102%
same,"viability, T/C","second compound 0.003 µM, first compound 0.316 µM",106%
same,"viability, T/C","second compound 0.003 µM, first compound 1 µM",103%
same,"viability, T/C","second compound 0.00949 µM, first compound 0.00316 µM",99.2%
same,"viability, T/C","second compound 0.00949 µM, first compound 0.01 µM",101%
same,"viability, T/C","second compound 0.00949 µM, first compound 0.0316 µM",107%
same,"viability, T/C","second compound 0.00949 µM, first compound 0.1 µM",103%
same,"viability, T/C","second compound 0.00949 µM, first compound 0.316 µM",107%
same,"viability, T/C","second compound 0.00949 µM, first compound 1 µM",103%
same,"viability, T/C","second compound 0.03 µM, first compound 0.00316 µM",90.5%
same,"viability, T/C","second compound 0.03 µM, first compound 0.01 µM",100%
same,"viability, T/C","second compound 0.03 µM, first compound 0.0316 µM",108%
same,"viability, T/C","second compound 0.03 µM, first compound 0.1 µM",107%
same,"viability, T/C","second compound 0.03 µM, first compound 0.316 µM",110%
same,"viability, T/C","second compound 0.03 µM, first compound 1 µM",102%
same,"viability, T/C","second compound 0.0949 µM, first compound 0.00316 µM",95.6%
same,"viability, T/C","second compound 0.0949 µM, first compound 0.01 µM",102%
same,"viability, T/C","second compound 0.0949 µM, first compound 0.0316 µM",104%
same,"viability, T/C","second compound 0.0949 µM, first compound 0.1 µM",106%
same,"viability, T/C","second compound 0.0949 µM, first compound 0.316 µM",107%
same,"viability, T/C","second compound 0.0949 µM, first compound 1 µM",98.3%
same,"viability, T/C","second compound 0.3 µM, first compound 0.00316 µM",99.8%
same,"viability, T/C","second compound 0.3 µM, first compound 0.01 µM",102%
same,"viability, T/C","second compound 0.3 µM, first compound 0.0316 µM",103%
same,"viability, T/C","second compound 0.3 µM, first compound 0.1 µM",107%
same,"viability, T/C","second compound 0.3 µM, first compound 0.316 µM",105%
same,"viability, T/C","second compound 0.3 µM, first compound 1 µM",101%
